Activity calls are given as the source filed them. The rule behind the calls is not given here.
Biological target: Signal transducer and activator of transcription 3 (Homo sapiens) (UniProt P40763)
Assay: Inhibition of STAT3 in human HeLa cells at 5 uM after 24 hrs by luciferase reporter gene assay
Assay type: cell-based

Signal transducer and activator of transcription 3 (Homo sapiens), sequence (P40763 whole entry): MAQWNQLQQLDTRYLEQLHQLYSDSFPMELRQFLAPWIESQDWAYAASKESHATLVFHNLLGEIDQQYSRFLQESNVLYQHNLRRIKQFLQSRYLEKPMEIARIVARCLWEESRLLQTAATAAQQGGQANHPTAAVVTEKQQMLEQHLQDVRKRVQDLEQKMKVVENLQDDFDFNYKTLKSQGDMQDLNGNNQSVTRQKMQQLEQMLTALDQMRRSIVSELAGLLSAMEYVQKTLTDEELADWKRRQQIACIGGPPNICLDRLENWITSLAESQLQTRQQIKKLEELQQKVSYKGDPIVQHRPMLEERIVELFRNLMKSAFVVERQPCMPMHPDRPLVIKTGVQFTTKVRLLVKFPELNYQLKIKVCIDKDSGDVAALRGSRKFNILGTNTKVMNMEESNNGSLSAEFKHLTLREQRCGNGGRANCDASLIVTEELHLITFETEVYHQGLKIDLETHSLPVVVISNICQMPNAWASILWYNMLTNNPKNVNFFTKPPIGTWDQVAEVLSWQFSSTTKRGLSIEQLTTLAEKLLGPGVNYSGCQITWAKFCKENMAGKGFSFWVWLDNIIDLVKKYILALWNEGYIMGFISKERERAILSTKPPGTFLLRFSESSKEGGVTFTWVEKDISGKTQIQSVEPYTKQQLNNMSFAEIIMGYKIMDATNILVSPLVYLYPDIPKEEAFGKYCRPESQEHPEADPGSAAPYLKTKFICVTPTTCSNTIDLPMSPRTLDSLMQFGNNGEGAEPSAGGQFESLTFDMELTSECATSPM

For `CCOC(=O)c1c(CSc2ccccc2)n(C)c2cc(Br)c(O)c(CN(C)C)c12`, the inhibition was “inactive”.
